{
  "source": "patent US8192962B2",
  "about": "“Processes for detecting toxic substances” (Daikin Industries, Ltd., priority 2001, dated 2012)",
  "tested_on": "DNA repair protein genes",
  "test": "DNA chip mRNA expression in yeast, DNA repair protein genes (Table 3)",
  "format": "cell-based, Saccharomyces cerevisiae S288C",
  "settings": "incubated two hours, concentrations as in the 1st table",
  "outline": "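First, S288C yeast grown in YPD at 25° C. are dosed in log phase with one toxicant (growth-inhibiting, not lethal) for 2 h. Next, total RNA is extracted and poly(A) mRNA isolated and reverse-transcribed with Cy3/Cy5-dUTP. Finally, whole-genome chip fluorescence is read relative to unexposed cells.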",
  "data": [
    {"smiles": "N#Cc1c(Cl)c(Cl)c(Cl)c(C#N)c1Cl", "note": "[(9), 2,4,5,6-tetrachloro-1,3-benzenedicarbonitrile]", "values": [
      {"measurement": "The level of expressed mRNA in the presence of chemical substance/The level of expressed mRNA in the absence of chemical substance", "setting": "yeast gene YAL015C", "value": 4.0},
      {"measurement": "The level of expressed mRNA in the presence of chemical substance/The level of expressed mRNA in the absence of chemical substance", "setting": "yeast gene YAR007C", "value": 4.1},
      {"measurement": "The level of expressed mRNA in the presence of chemical substance/The level of expressed mRNA in the absence of chemical substance", "setting": "yeast gene YBL019W", "value": 2.6},
      {"measurement": "The level of expressed mRNA in the presence of chemical substance/The level of expressed mRNA in the absence of chemical substance", "setting": "yeast gene YBR073W", "value": 2.5},
      {"measurement": "The level of expressed mRNA in the presence of chemical substance/The level of expressed mRNA in the absence of chemical substance", "setting": "yeast gene YBR272C", "value": 1.7},
      {"measurement": "The level of expressed mRNA in the presence of chemical substance/The level of expressed mRNA in the absence of chemical substance", "setting": "yeast gene YCR014C", "value": 2.4},
      {"measurement": "The level of expressed mRNA in the presence of chemical substance/The level of expressed mRNA in the absence of chemical substance", "setting": "yeast gene YDL017W", "value": 0.8},
      {"measurement": "The level of expressed mRNA in the presence of chemical substance/The level of expressed mRNA in the absence of chemical substance", "setting": "yeast gene YDL059C", "value": 10.5},
      {"measurement": "The level of expressed mRNA in the presence of chemical substance/The level of expressed mRNA in the absence of chemical substance", "setting": "yeast gene YDL200C", "value": 2.4},
      {"measurement": "The level of expressed mRNA in the presence of chemical substance/The level of expressed mRNA in the absence of chemical substance", "setting": "yeast gene YDR054C", "value": 2.9},
      {"measurement": "The level of expressed mRNA in the presence of chemical substance/The level of expressed mRNA in the absence of chemical substance", "setting": "yeast gene YDR369C", "value": 2.4},
      {"measurement": "The level of expressed mRNA in the presence of chemical substance/The level of expressed mRNA in the absence of chemical substance", "setting": "yeast gene YEL019C", "value": 0.7},
      {"measurement": "The level of expressed mRNA in the presence of chemical substance/The level of expressed mRNA in the absence of chemical substance", "setting": "yeast gene YEL037C", "value": 2.6},
      {"measurement": "The level of expressed mRNA in the presence of chemical substance/The level of expressed mRNA in the absence of chemical substance", "setting": "yeast gene YER162C", "value": 2.8},
      {"measurement": "The level of expressed mRNA in the presence of chemical substance/The level of expressed mRNA in the absence of chemical substance", "setting": "yeast gene YFL014W", "value": 13.1},
      {"measurement": "The level of expressed mRNA in the presence of chemical substance/The level of expressed mRNA in the absence of chemical substance", "setting": "yeast gene YGL058W", "value": 3.7},
      {"measurement": "The level of expressed mRNA in the presence of chemical substance/The level of expressed mRNA in the absence of chemical substance", "setting": "yeast gene YGL091C", "value": 10.8},
      {"measurement": "The level of expressed mRNA in the presence of chemical substance/The level of expressed mRNA in the absence of chemical substance", "setting": "yeast gene YGL127C", "value": 1.2},
      {"measurement": "The level of expressed mRNA in the presence of chemical substance/The level of expressed mRNA in the absence of chemical substance", "setting": "yeast gene YGL163C", "value": 5.8},
      {"measurement": "The level of expressed mRNA in the presence of chemical substance/The level of expressed mRNA in the absence of chemical substance", "setting": "yeast gene YGL249W", "value": 0.3},
      {"measurement": "The level of expressed mRNA in the presence of chemical substance/The level of expressed mRNA in the absence of chemical substance", "setting": "yeast gene YGR180C", "value": 1.4},
      {"measurement": "The level of expressed mRNA in the presence of chemical substance/The level of expressed mRNA in the absence of chemical substance", "setting": "yeast gene YGR231C", "value": 3.2},
      {"measurement": "The level of expressed mRNA in the presence of chemical substance/The level of expressed mRNA in the absence of chemical substance", "setting": "yeast gene YGR258C", "value": 2.5},
      {"measurement": "The level of expressed mRNA in the presence of chemical substance/The level of expressed mRNA in the absence of chemical substance", "setting": "yeast gene YHR164C", "value": 1.3},
      {"measurement": "The level of expressed mRNA in the presence of chemical substance/The level of expressed mRNA in the absence of chemical substance", "setting": "yeast gene YIL036W", "value": 3.6},
      {"measurement": "The level of expressed mRNA in the presence of chemical substance/The level of expressed mRNA in the absence of chemical substance", "setting": "yeast gene YIL072W", "value": 2.9},
      {"measurement": "The level of expressed mRNA in the presence of chemical substance/The level of expressed mRNA in the absence of chemical substance", "setting": "yeast gene YIL143C", "value": 7.1},
      {"measurement": "The level of expressed mRNA in the presence of chemical substance/The level of expressed mRNA in the absence of chemical substance", "setting": "yeast gene YIL153W", "value": 4.3},
      {"measurement": "The level of expressed mRNA in the presence of chemical substance/The level of expressed mRNA in the absence of chemical substance", "setting": "yeast gene YIR002C", "value": 1.7},
      {"measurement": "The level of expressed mRNA in the presence of chemical substance/The level of expressed mRNA in the absence of chemical substance", "setting": "yeast gene YJL026W", "value": 1.0},
      {"measurement": "The level of expressed mRNA in the presence of chemical substance/The level of expressed mRNA in the absence of chemical substance", "setting": "yeast gene YJR046W", "value": 6.0},
      {"measurement": "The level of expressed mRNA in the presence of chemical substance/The level of expressed mRNA in the absence of chemical substance", "setting": "yeast gene YJR052W", "value": 4.5},
      {"measurement": "The level of expressed mRNA in the presence of chemical substance/The level of expressed mRNA in the absence of chemical substance", "setting": "yeast gene YKL145W", "value": 3.5},
      {"measurement": "The level of expressed mRNA in the presence of chemical substance/The level of expressed mRNA in the absence of chemical substance", "setting": "yeast gene YLR103C", "value": 0.8},
      {"measurement": "The level of expressed mRNA in the presence of chemical substance/The level of expressed mRNA in the absence of chemical substance", "setting": "yeast gene YLR233C", "value": 0.6},
      {"measurement": "The level of expressed mRNA in the presence of chemical substance/The level of expressed mRNA in the absence of chemical substance", "setting": "yeast gene YLR288C", "value": 0.8},
      {"measurement": "The level of expressed mRNA in the presence of chemical substance/The level of expressed mRNA in the absence of chemical substance", "setting": "yeast gene YML032C", "value": 3.0},
      {"measurement": "The level of expressed mRNA in the presence of chemical substance/The level of expressed mRNA in the absence of chemical substance", "setting": "yeast gene YML058W", "value": 1.1},
      {"measurement": "The level of expressed mRNA in the presence of chemical substance/The level of expressed mRNA in the absence of chemical substance", "setting": "yeast gene YMR035W", "value": 1.7},
      {"measurement": "The level of expressed mRNA in the presence of chemical substance/The level of expressed mRNA in the absence of chemical substance", "setting": "yeast gene YMR072W", "value": 3.0},
      {"measurement": "The level of expressed mRNA in the presence of chemical substance/The level of expressed mRNA in the absence of chemical substance", "setting": "yeast gene YMR096W", "value": 3.3},
      {"measurement": "The level of expressed mRNA in the presence of chemical substance/The level of expressed mRNA in the absence of chemical substance", "setting": "yeast gene YMR284W", "value": 1.6},
      {"measurement": "The level of expressed mRNA in the presence of chemical substance/The level of expressed mRNA in the absence of chemical substance", "setting": "yeast gene YNL213C", "value": 3.0},
      {"measurement": "The level of expressed mRNA in the presence of chemical substance/The level of expressed mRNA in the absence of chemical substance", "setting": "yeast gene YNL250W", "value": 4.2},
      {"measurement": "The level of expressed mRNA in the presence of chemical substance/The level of expressed mRNA in the absence of chemical substance", "setting": "yeast gene YNL261W", "value": 2.3},
      {"measurement": "The level of expressed mRNA in the presence of chemical substance/The level of expressed mRNA in the absence of chemical substance", "setting": "yeast gene YNL312W", "value": 3.7},
      {"measurement": "The level of expressed mRNA in the presence of chemical substance/The level of expressed mRNA in the absence of chemical substance", "setting": "yeast gene YOL043C", "value": 1.0},
      {"measurement": "The level of expressed mRNA in the presence of chemical substance/The level of expressed mRNA in the absence of chemical substance", "setting": "yeast gene YOR005C", "value": 2.4},
      {"measurement": "The level of expressed mRNA in the presence of chemical substance/The level of expressed mRNA in the absence of chemical substance", "setting": "yeast gene YOR386W", "value": 4.1},
      {"measurement": "The level of expressed mRNA in the presence of chemical substance/The level of expressed mRNA in the absence of chemical substance", "setting": "yeast gene YPL022W", "value": 2.1},
      {"measurement": "The level of expressed mRNA in the presence of chemical substance/The level of expressed mRNA in the absence of chemical substance", "setting": "yeast gene YPL164C", "value": 2.1},
      {"measurement": "The level of expressed mRNA in the presence of chemical substance/The level of expressed mRNA in the absence of chemical substance", "setting": "yeast gene YPL194W", "value": 9.6},
      {"measurement": "The level of expressed mRNA in the presence of chemical substance/The level of expressed mRNA in the absence of chemical substance", "setting": "yeast gene YPR025C", "value": 1.9}
    ]}
  ]
}
